Measurements taken from patent US7064139B2, “Method for treating retroviral infections” (Uniroyal Chemical Company, Inc., priority 2001, dated 2006).
In brackets after ≈: the same amount, converted by molar mass. Read-outs that look alike come from different tables or passages of the source.

How the values were obtained:
HIV-2 (ROD) = assay: Inhibition of HIV-2 syncytium formation in CEM cells; type: cell-based; settings: for HIV-2 % Protection: protection of CEM cells against virus-induced cytopathicity at the concentration in the previous column; for EC50: Human immunodeficiency virus 2, CCRF-CEM, read-out: EC50 (ug/ml) HIV-2
Text: (§1) The cell type used to determine activity of the compounds of the invention herein, i.e., the test compounds, against HIV was human T-lymphoblast (CEM) cells obtained from the American Tissue Cell Culture Collection (Rockville, Md.). HIV-1 (IIIB) was originally obtained from the culture of persistently HIV-1 infected H9 cells and was provided by R. C. Gallo and M. Popovic (National Cancer Institute, National Institutes of Health, Bethesda, Md.). HIV-2 (ROD) was originally obtained from L. M. Montagnier (Pasteur Institute, Paris, France).
(§2) To determine the antiviral activity of the test compounds, CEM cells were suspended at a cell density of approximately 300,000 cells per ml of culture medium and infected with approximately 100 CCID50 (100 CCID50 being the 50% cell culture infective dose) of HIV-1 (IIIB) or HIV-2 (ROD)). Then 100 μl of the infected cell suspensions was added to 200 μl micro titer plate wells containing 100 μl of appropriate serial (5-fold) dilutions of the test compounds. The inhibitory effect of the test compounds on HIV-1 or HIV-2 syncytium formation in CEM cells was examined microscopically on day four post infection.
(§3) In these cases, the percent protection of the cells against virus-induced cytopathicity by the test compounds at the indicated compound concentration in the previous column is given.

HIV-1 (IIIB) = assay: microbe, parasite or virus in culture; type: cell-based; settings: for EC50 (ug/ml) HIV-1 / EC50: CEM cells, syncytium formation, day four post infection; for EC50: Human immunodeficiency virus 1, IIIB, CCRF-CEM, read-out: EC50 (ug/ml) HIV-1; for HIV-1 % Protection: protection of CEM cells against virus-induced cytopathicity at the concentration in the previous column
Text: as §1, §2, §3

Davis strain CMV = assay: Reduction of CMV-induced cytopathicity in HEL cells; type: cell-based, human cytomegalovirus (HCMV); settings: for Antiviral % Inhibition Davis strain CMV: estimate of percent protection at the concentration in the previous column; for EC50: read-out: Antiviral EC50 (ug/ml) Davis strain CMV
Experimental: Confluent HEL cells grown in […] microtiter plates were inoculated with CMV at an input of 100 PFU (plaque forming units) per well. After a one to two hour incubation period, residual virus was removed and the infected cells were further incubated with MEM (Minimal Essential Medium) (supplemented with 2% inactivated Fetal Calf Serum (FCS), […], and 0.3% sodium bicarbonate) containing varying concentrations of the test compounds. Antiviral activity was expressed as EC50 (50% effective concentration), or test compound concentration required to reduce virus-induced cytopathicity after seven days by 50% compared to the untreated control.
In some cases, the compounds had considerable cytotoxicity against HEL cells, which made determination of the EC50 difficult. In these cases, an estimate of the percent protection at the compound concentration indicated in the previous columns is given.

[1] = CEM cells, syncytium formation, day four post infection
[2] = HEL cells, virus-induced cytopathicity after seven days
[3] = Human betaherpesvirus 5, 168 h, HEL cells, virus-induced cytopathicity after seven days

Compound	EC50 (ug/ml) HIV-2 (HIV-2 (ROD); [1])	HIV-2 % Protection (HIV-2 (ROD))	EC50 (ug/ml) HIV-1 (HIV-1 (IIIB))	Antiviral % Inhibition Davis strain CMV (Davis strain CMV; HEL cells)	Antiviral EC50 (ug/ml) Davis strain CMV (Davis strain CMV; [2])	EC50 (HIV-2 (ROD); [1])	EC50 (HIV-1 (IIIB))	EC50 (Davis strain CMV; [3])	HIV-1 % Protection (HIV-1 (IIIB))	EC50 (HIV-2 (ROD))	EC50 (Davis strain CMV; Human betaherpesvirus 5, HEL, 168 h)
Cc1ccc(C)c(C(Cl)S(=O)(=O)c2cccc(C)[n+]2[O-])c1 (stereo not shown) [Compound 73]	>100.0 µg/mL	0.0%	2.80 µg/mL (≈ 8.59 µM)	40.0%	>20 µg/mL	–	–	–	–	–	–
CC(C)c1ccc(C(C)C)c(C[S+]([O-])c2cccc[n+]2[O-])c1 (stereo not shown) [Compound 95]	≧4 ug/ml	37.5%	>4 µg/mL	–	4.1 µg/mL	–	–	–	–	–	–
CCC(c1cc(C)ccc1C)S(=O)(=O)c1c(C)ccc[n+]1[O-] (stereo not shown) [Compound 79, 2-[[1-(2,5-dimethylphenyl)propyl]sulfonyl]-3-methylpyridine-1-oxide]	–	37.5%	–	–	–	≥ 20 µg/mL	1.4 µg/mL (≈ 4.38 µM)	0.8 µg/mL (≈ 2.5 µM)	–	–	–
Cc1cccc(CSc2cccc[n+]2C)c1.[Cl-] [Compound 142]	>4 µg/mL	0.0%	>4 µg/mL	–	3.4 µg/mL	–	–	–	0.0%	–	–
Cc1ccc(C)c(C(C)S(=O)(=O)c2ccc(C)c[n+]2[O-])c1 (stereo not shown) [Compound 110, 2-[1-(2,5-Dimethylphenyl)ethylsulfonyl]-5-methylpyridine N-oxide]	–	0.0%	–	–	–	> 100 µg/mL	5.5 µg/mL (≈ 18 µM)	50 µg/mL (≈ 164 µM)	–	–	–
O=[N+]([O-])c1ccc(CS(=O)(=O)c2cccc[n+]2[O-])c(Cl)c1 [Compound 69]	2.9 µg/mL (≈ 8.82 µM)	–	2.90 µg/mL (≈ 8.82 µM)	20.0%	>5 µg/mL	–	–	–	–	–	–
Oc1cccnc1SCc1ccccc1 [Compound 140, 2-[(Phenylmethyl)thio]-3-pyridinol]	–	–	–	–	–	–	2 µg/mL (≈ 9.2 µM)	–	–	12 µg/mL (≈ 55.2 µM)	12 µg/mL (≈ 55.2 µM)
Cc1ccc(C[S+]([O-])c2cccc[n+]2[O-])cc1 (stereo not shown) [Compound 91]	>4.0 µg/mL	0.0%	>4 µg/mL	–	34.5 µg/mL	–	–	–	0.0%	–	–
CCc1cccc2c(C)cc(S(=O)(=O)C(C)c3ccccc3)nc12 (stereo not shown) [Compound 107, 8-ethyl-4-methyl-2-[(1-phenylethyl)sulfonyl]-quinoline]	–	–	–	0.0%	–	> 100 µg/mL	0.65 µg/mL (≈ 1.91 µM)	> 20 µg/mL	–	–	–
Cc1ccc(C)c(C[S+]([O-])c2cccc[n+]2[O-])c1C (stereo not shown) [Compound 97, 2-(2,3,6-Trimethylphenylmethylsulfinyl)pyridine N-oxide]	–	0.0%	–	–	–	> 0.8 µg/mL	> 0.8 µg/mL	11 µg/mL (≈ 39.9 µM)	0.0%	–	–
COc1ccc(C)cc1CSc1cccc[n+]1[O-] [Compound 93]	≧20 ug/ml	37.5%	8.00 µg/mL (≈ 30.6 µM)	0.0%	>50 µg/mL	–	–	–	–	–	–
Cc1ccc(CS(=O)(=O)c2cccc[n+]2[O-])cc1[N+](=O)[O-] [Compound 67]	2.4 µg/mL (≈ 7.78 µM)	–	2.30 µg/mL (≈ 7.46 µM)	20.0%	>50 µg/mL	–	–	–	–	–	–
Cc1ccc[n+]([O-])c1[S+]([O-])Cc1c(Cl)cccc1Cl (stereo not shown) [Compound 138]	>100.0 µg/mL	0.0%	>100 µg/mL	20.0%	>50 µg/mL	–	–	–	0.0%	–	–
O=S(=O)(Cc1ccc2ccccc2c1)c1cccc[n+]1[O-] [Compound 53]	4.1 µg/mL (≈ 13.7 µM)	–	2.33 µg/mL (≈ 7.78 µM)	20.0%	>5 µg/mL	–	–	–	–	–	–
O=S(=O)(Cc1ccc(Cl)cc1)c1cccc[n+]1[O-] [Compound 12]	9.5 µg/mL (≈ 33.5 µM)	–	9.50 µg/mL (≈ 33.5 µM)	–	20.0 µg/mL	–	–	–	–	–	–
Cc1ccccc1CS(=O)(=O)c1cccc[n+]1[O-] [Compound 16, 2-(2-Methylphenylmethylsulfonyl)-pyridine N-oxide]	–	–	–	–	–	7.5 µg/mL (≈ 28.5 µM)	11 µg/mL (≈ 41.8 µM)	12 µg/mL (≈ 45.6 µM)	–	–	–

Compound	EC50 (ug/ml) HIV-2 (HIV-2 (ROD); [1])	HIV-2 % Protection (HIV-2 (ROD))	EC50 (ug/ml) HIV-1 (HIV-1 (IIIB))	Antiviral % Inhibition Davis strain CMV (Davis strain CMV; HEL cells)	Antiviral EC50 (ug/ml) Davis strain CMV (Davis strain CMV; [2])	EC50 (HIV-2 (ROD); [1])	EC50 (HIV-1 (IIIB))	EC50 (Davis strain CMV; [3])	HIV-1 % Protection (HIV-1 (IIIB))	EC50 (HIV-2 (ROD))	EC50 (Davis strain CMV; Human betaherpesvirus 5, HEL, 168 h)
COc1ccc(C=C(C#N)Sc2cccc[n+]2[O-])cc1 [Compound 159]	>20 µg/mL	25.0%	>20 µg/mL	–	10.0 µg/mL	–	–	–	0.0%	–	–
Cc1ccc(C)c(CS(=O)(=O)c2cccc(Cl)[n+]2[O-])c1 [Compound 77]	>0.8 µg/mL	0.0%	0.70 µg/mL (≈ 2.25 µM)	–	11.0 µg/mL	–	–	–	–	–	–
Cc1ccc[n+]([O-])c1S(=O)(=O)C(C)c1ccccc1 (stereo not shown) [Compound 115]	>20.00 µg/mL	0.0%	>20 µg/mL	40.0%	>50 µg/mL	–	–	–	0.0%	–	–
Cc1ccc(C)c(C(Cl)S(=O)(=O)c2ccccn2)c1 (stereo not shown) [Compound 106, 2-((2,5-dimethylphenyl)chloromethylsulphonyl)pyridine]	–	0.0%	–	–	–	> 4 µg/mL	0.9 µg/mL (≈ 3.04 µM)	20 µg/mL (≈ 67.6 µM)	–	–	–
Cc1ccc(C)c(C(C)S(=O)(=O)c2ccccn2)c1 (stereo not shown) [Compound 161]	>100 µg/mL	0.0%	9.50 µg/mL (≈ 34.5 µM)	–	38.0 µg/mL	–	–	–	–	–	–
Cc1ccc(C)c(C(C)S(=O)(=O)c2c(Cl)ccc[n+]2[O-])c1 (racemic) [Compound 124]	>0.80 µg/mL	0.0%	>.8 µg/mL	10.0%	>5 µg/mL	–	–	–	0.0%	–	–
Cc1ccc(C(C)S(=O)(=O)c2c(C)ccc[n+]2[O-])c(C)c1 (racemic) [Compound 78]	>100.0 µg/mL	0.0%	1.40 µg/mL (≈ 4.58 µM)	–	10.0 µg/mL	–	–	–	–	–	–
Cc1c(Cl)c(Cl)c(CS(=O)(=O)c2cccc[n+]2[O-])c(Cl)c1Cl [Compound 49]	≧.8 ug/ml	37.5%	≧.8 ug/ml	–	5.0 µg/mL	–	–	–	37.5%	–	–
2-(4-(2,2-dichlorocyclopropyl)phenyl)methylsulfonyl)-pyridine-N-oxide [Compound 45]	1.5 µg/mL	–	1.75 µg/mL	–	2.5 µg/mL	–	–	–	–	–	–
CCOc1ccccc1CS(=O)(=O)c1cccc[n+]1[O-] [Compound 48]	16.0 µg/mL (≈ 54.5 µM)	–	9.50 µg/mL (≈ 32.4 µM)	20.0%	>20 µg/mL	–	–	–	–	–	–
COc1ccc(C[S+]([O-])c2cccc[n+]2[O-])cc1 (stereo not shown) [Compound 86]	>0.8 µg/mL	0.0%	>.8 µg/mL	–	3.8 µg/mL	–	–	–	0.0%	–	–
O=S(=O)(Cc1ccccc1)c1ccccn1 [Compound 143]	50.0 µg/mL (≈ 214 µM)	–	30.00 µg/mL (≈ 129 µM)	0.0%	>50 µg/mL	–	–	–	–	–	–
O=S(=O)(Cc1cccc2ccccc12)c1cccc[n+]1[O-] [Compound 13]	6.0 µg/mL (≈ 20 µM)	–	6.50 µg/mL (≈ 21.7 µM)	20.0%	>5 µg/mL	–	–	–	–	–	–
COc1ccc(C)cc1CS(=O)(=O)c1cccc[n+]1[O-] [Compound 30]	14.0 µg/mL (≈ 47.7 µM)	–	1.60 µg/mL (≈ 5.45 µM)	–	37.0 µg/mL	–	–	–	–	–	–
O=S(=O)(Cc1ccc(-c2ccccc2)cc1)c1cccc[n+]1[O-] [Compound 54]	4.0 µg/mL (≈ 12.3 µM)	–	≧4 ug/ml	–	5.0 µg/mL	–	–	–	37.5%	–	–
